Source: US11135192B2, “Inhibitors for treating diseases characterized by atrial enlargement or remodeling” (Novartis AG, priority 2012, dated 2021)

Key:
[1] = system: patients with heart failure with preserved ejection fraction; assay: Plasma NT-proBNP in the 37-week randomized, double-blind study of LCZ696 compared to valsartan; type: in vivo, human; settings: for NT-proBNP (pg/ml) at 12 weeks: 12 weeks / NT-proBNP (pg/ml) at 36 weeks: 36 weeks / NT-proBNP (pg/ml) at 12 weeks: Baseline / NT-proBNP (pg/ml) at 36 weeks: Baseline: geometric mean; for NT-proBNP (pg/ml) at 12 weeks: 12 weeks: after 12 weeks of treatment, target LCZ696 200 mg or valsartan 160 mg twice daily; for NT-proBNP (pg/ml) at 36 weeks: 36 weeks: after 36 weeks of treatment; for NT-proBNP (pg/ml) at 12 weeks: Baseline: baseline of patients analysed at 12 weeks; for NT-proBNP (pg/ml) at 36 weeks: Baseline: baseline of patients analysed at 36 weeks
Source text: Men and women aged 40 years or older with a left ventricular ejection fraction of 45% or above, and a documented history of heart failure with associated signs or symptoms (dyspnea on exertion, orthopnea, paroxysmal dyspnea, and peripheral edema) are eligible. Patients are required to have an NT-proBNP>400 pg/mL at screening, be on diuretic therapy, and have a systolic blood pressure less than 140 mm Hg, or 160 mm Hg or less if on three or more blood pressure medications at randomization. Additional inclusion criteria include an estimated glomerular filtration rate (eGFR) of at least 30 ml/min/1.73 m^2 at screening (calculated by the Modification of Diet in Renal Disease formula) and a potassium of no more than 5.2 mmol/L.
(§1) The primary study endpoint is the change from baseline in NT-proBNP assessed at 12 weeks, and is analyzed using the last observation after baseline carried forward. Secondary endpoints include changes in echocardiography measures (left ventricular volumes and ejection fraction, left atrial volume, measures of diastolic function), change in blood pressure, as well as change in New York Heart Association Class (NYHA) clinical composite assessment and quality of life (Kansas City Cardiomyopathy Questionnaire).

[2] = system: patients with heart failure with preserved ejection fraction; assay: Blood pressure change in the same HF-PEF study; type: in vivo, human; settings: mean (SD)
Protocol: as §1
(§2) Echocardiography studies are performed at screening, randomization, at week 12, and week 36 or at end of study or early termination visits. Echocardiograms performed at screening are evaluated by local readers for qualifying information. All other echocardiograms are only performed in patients meeting NT-proBNP entry criterion and are evaluated centrally. For assessment of global ventricular size and function, left ventricular end-diastolic and end-systolic volumes are obtained utilizing the Simpson's rule method and left ventricular ejection fraction is derived in the usual fashion. Maximal left atrial dimension is measured in the parasternal long-axis view, and left atrial volume is assessed with the Simpson's rule method and indexed to body surface area. Measurements are made in triplicate in accordance with the recommendations of the American Society of Echocardiography. Blood pressure and heart rate are measured at all study visits with a calibrated standard sphygmomanometer and appropriate size cuff. The use of concomitant medication is recorded at each study visit.

[3] = system: patients with heart failure with preserved ejection fraction; assay: Echocardiography (left atrial and left ventricular measures) in the same HF-PEF study; type: in vivo, human
Protocol: as §1, §2

[4] = system: patients with heart failure with preserved ejection fraction
Protocol: as §1
The clinical composite assessment is based on a composite of the NYHA functional classification, patient global assessment and major adverse clinical events. […] Patients are determined to be worse if at the endpoint visit they experienced a major adverse cardiac event during the double blind treatment or reported worsening of their NYHA class or patient global assessment. Patients are considered unchanged if they are neither improved nor worsened.

[5] = system: patients with heart failure with preserved ejection fraction; assay: Safety and tolerability (adverse events, target dose achieved) in the same HF-PEF study
[6] = at 36 weeks, no unit printed in b206 (mm Hg)

| SMILES | NT-proBNP (pg/ml) at 12 weeks: 12 weeks [1] | NT-proBNP (pg/ml) at 36 weeks: 36 weeks [1] | NT-proBNP (pg/ml) at 12 weeks: Baseline [1] | NT-proBNP (pg/ml) at 36 weeks: Baseline [1] | diastolic blood pressure reduction ([2]; after 12 weeks of treatment) | systolic blood pressure reduction ([2]; after 12 weeks of treatment) | diastolic blood pressure reduction [2, 6] | systolic blood pressure reduction [2, 6] | LA Volume, Δ from Baseline ([3]; at 36 weeks) | LA dimension, Δ from Baseline ([3]; at 36 weeks) | Relative wall thickness, Δ from Baseline ([3]; at 36 weeks) | LA Volume, Baseline ([3]; baseline) | LA dimension, Baseline ([3]; baseline) | also measured |
| --- | --- | --- | --- | --- | --- | --- | --- | --- | --- | --- | --- | --- | --- | --- |
| CCCCC(=O)N(Cc1ccc(-c2ccccc2-c2nnn[n-]2)cc1)C(C(=O)[O-])C(C)C.CCCCC(=O)N(Cc1ccc(-c2ccccc2-c2nnn[n-]2)cc1)C(C(=O)[O-])C(C)C.CCOC(=O)C(C)CC(Cc1ccc(-c2ccccc2)cc1)NC(=O)CCC(=O)[O-].CCOC(=O)C(C)CC(Cc1ccc(-c2ccccc2)cc1)NC(=O)CCC(=O)[O-].O.O.O.O.O.[Na+].[Na+].[Na+].[Na+].[Na+].[Na+] [LCZ696, trisodium [3-((1S,3R)-1-biphenyl-4-ylmethyl-3-ethoxycarbonyl-1-butylcarbamoyl) propionate-(S)-3′-methyl-2′-(pentanoyl(2″-(tetrazol-5-ylate)biphenyl-4′-ylmethyl)amino)butyrate]hemipentahydrate] | 605 pg/mL | 496 pg/mL | 783 pg/mL | 763 pg/mL | 4.9 (10) mm Hg | 9.3 (SD 14) mm Hg | 5.1 (10.8) | 7.5 (15) | -4.61 mL | −0.15 cm | +0.01% | 65.26 mL | 3.68 cm | reduction in NT-proBNP in patients with diabetes compared with patients without diabetes ([1]; 12 weeks, prespecified subgroup, interaction p=0.02): differentially greater reduction; reduction in NT-proBNP versus valsartan after adjustment for the change in blood pressure ([1]; 12 weeks, p=0.01): greater reduction; NT-proBNP versus baseline ([1]; 36 weeks): remained reduced from baseline; early reduction in NT-proBNP compared with the valsartan group ([1]; after 4 weeks of treatment, p=0.083): not significant; Left atrial volume (result in words) ([3]; after 36 weeks of treatment, p=0.003): reduced significantly; left atrial dimension (result in words) ([3]; after 36 weeks of treatment, p=0.034): reduced significantly; NYHA class improvement between groups ([4]; at 12 weeks, p=0.11): did not differ significantly; NYHA class compared with the valsartan group ([4]; at 36 weeks, p=0.05): improvement |
| CCCCC(=O)N(Cc1ccc(-c2ccccc2-c2nnn[nH]2)cc1)[C@H](C(=O)O)C(C)C [Valsartan, (S)—N-valeryl-N-{[2′-(1H-tetrazole-5-yl)-biphenyl-4-yl]-methyl}-valine, reference compound] | 835 pg/mL | 607 pg/mL | 862 pg/mL | 822 pg/mL | 2.1 (11) mm Hg | 2.9 (17) mm Hg | 0.34 (11.5) | 1.5 (18) | 0.37 mL | −0.08 cm | +0.01% | 68.28 mL | 3.73 cm | LA Volume Index, Δ from Baseline ([3]; at 36 weeks): 0.31 ml/m^2; LV mass index, Δ from Baseline ([3]; at 36 weeks): −1.93 g/m^2; LA Volume Index, Baseline ([3]; baseline): 36.80 ml/m^2; LV mass index, Baseline ([3]; baseline): 79.45 g/m^2; deaths ([5]; among the serious adverse events): two; adverse event atrial fibrillation, number of patients ([5]; during the trial): 8 patients; adverse event atrial fibrillation, percent of patients ([5]; during the trial): 5.3%; one or more serious adverse events, number of patients ([5]; during the trial): 30 patients; one or more serious adverse events, percent of patients ([5]; during the trial): 20%; Angio-oedema, patients ([5]; the LCZ696 patient did not need admission to hospital): no patients |
